Measured values published in US6593365B1, “Diflunisal esters and related compounds” (The University of Queensland, priority 1997, dated 2003).

system: not listed separately; experiment: Maximum solubility in 2% BSA Krebs-Henseleit buffer (pH 7.4); assay type: physicochemical; details: 25 1° C.
Text: The intrinsic solubility of diflunisal esters is extremely low (TABLE 2). The more lipophilic the analogue, the higher the solubility of solute under these conditions.

| SMILES | Maximum solubility [mM] |
| --- | --- |
| CCCC(=O)Oc1ccc(-c2ccc(F)cc2F)cc1C(=O)O [Compound C4D, n-butanoyldiflunisal] | 12.38 |
| CCCCC(=O)Oc1ccc(-c2ccc(F)cc2F)cc1C(=O)O [Compound C5D, n-pentanoyldiflunisal] | 20.90 |
| CC(=O)Oc1ccc(-c2ccc(F)cc2F)cc1C(=O)O [Compound C2D, acetyldiflunisal] | 7.57 |

same assay, conditions: 25 1° C., mean standard deviation (n=3)

| SMILES | Maximum solubility [mg/mL] |
| --- | --- |
| CCCC(=O)Oc1ccc(-c2ccc(F)cc2F)cc1C(=O)O [Compound C4D, n-butanoyldiflunisal] | 3.96 ± 0.08 |
| CCCCC(=O)Oc1ccc(-c2ccc(F)cc2F)cc1C(=O)O [Compound C5D, n-pentanoyldiflunisal] | 6.98 ± 0.15 |
| CC(=O)Oc1ccc(-c2ccc(F)cc2F)cc1C(=O)O [Compound C2D, acetyldiflunisal] | 2.2 ± 0.07 |

system: human platelet rich plasma; experiment: Platelet aggregation induced by arachidonic acid; assay type: cell-based; details: preincubation 3 minutes; compound 600 µM, 37° C.; arachidonic acid 200 µM
Procedure, shortened: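 Citrated human PRP ([…]) preincubated with compound 3–45 min at 37 °C under stirring, then challenged with 200 µM arachidonic acid (final). Aggregation quantified as area under the turbidimetric curve; non-responding samples given 20 µM ADP to verify platelet viability.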

| SMILES | Platelet Aggregation (% of control) |
| --- | --- |
| CCCC(=O)Oc1ccc(-c2ccc(F)cc2F)cc1C(=O)O [Compound C4D, n-butanoyldiflunisal] | 96.1 ± 0.3 % of control |
| CCCCC(=O)Oc1ccc(-c2ccc(F)cc2F)cc1C(=O)O [Compound C5D, n-pentanoyldiflunisal] | 97.1 ± 0.1 % of control |
| CC(=O)Oc1ccc(-c2ccc(F)cc2F)cc1C(=O)O [Compound C2D, acetyldiflunisal] | 92.3 ± 0.5 % of control |

same assay, conditions: preincubation 5 minutes; compound 600 µM, 37° C.; arachidonic acid 200 µM

| SMILES | Platelet Aggregation (% of control) |
| --- | --- |
| CCCC(=O)Oc1ccc(-c2ccc(F)cc2F)cc1C(=O)O [Compound C4D, n-butanoyldiflunisal] | 90.3 ± 2.1 % of control |
| CCCCC(=O)Oc1ccc(-c2ccc(F)cc2F)cc1C(=O)O [Compound C5D, n-pentanoyldiflunisal] | 95.3 ± 0.7 % of control |
| CC(=O)Oc1ccc(-c2ccc(F)cc2F)cc1C(=O)O [Compound C2D, acetyldiflunisal] | 67.3 ± 0.9 % of control |

same assay, conditions: preincubation 8 minutes; compound 600 µM, 37° C.; arachidonic acid 200 µM

| SMILES | Platelet Aggregation (% of control) |
| --- | --- |
| CCCC(=O)Oc1ccc(-c2ccc(F)cc2F)cc1C(=O)O [Compound C4D, n-butanoyldiflunisal] | 73.9 ± 0.7 % of control |
| CCCCC(=O)Oc1ccc(-c2ccc(F)cc2F)cc1C(=O)O [Compound C5D, n-pentanoyldiflunisal] | 90.6 ± 0.9 % of control |
| CC(=O)Oc1ccc(-c2ccc(F)cc2F)cc1C(=O)O [Compound C2D, acetyldiflunisal] | 27.9 ± 1.1 % of control |

same assay, conditions: preincubation 10 minutes; compound 600 µM, 37° C.; arachidonic acid 200 µM

| SMILES | Platelet Aggregation (% of control) |
| --- | --- |
| CCCC(=O)Oc1ccc(-c2ccc(F)cc2F)cc1C(=O)O [Compound C4D, n-butanoyldiflunisal] | 57.3 ± 0.1 % of control |
| CCCCC(=O)Oc1ccc(-c2ccc(F)cc2F)cc1C(=O)O [Compound C5D, n-pentanoyldiflunisal] | 87.3 ± 3.1 % of control |
| CC(=O)Oc1ccc(-c2ccc(F)cc2F)cc1C(=O)O [Compound C2D, acetyldiflunisal] | 0 % of control |

same assay, conditions: preincubation 12 minutes; compound 600 µM, 37° C.; arachidonic acid 200 µM

| SMILES | Platelet Aggregation (% of control) |
| --- | --- |
| CCCC(=O)Oc1ccc(-c2ccc(F)cc2F)cc1C(=O)O [Compound C4D, n-butanoyldiflunisal] | 31.8 ± 0.4 % of control |
| CCCCC(=O)Oc1ccc(-c2ccc(F)cc2F)cc1C(=O)O [Compound C5D, n-pentanoyldiflunisal] | 75.9 ± 0.1 % of control |
| CC(=O)Oc1ccc(-c2ccc(F)cc2F)cc1C(=O)O [Compound C2D, acetyldiflunisal] | 0 % of control |

same assay, conditions: preincubation 15 minutes; compound 600 µM, 37° C.; arachidonic acid 200 µM

| SMILES | Platelet Aggregation (% of control) |
| --- | --- |
| CCCC(=O)Oc1ccc(-c2ccc(F)cc2F)cc1C(=O)O [Compound C4D, n-butanoyldiflunisal] | 0 % of control |
| CCCCC(=O)Oc1ccc(-c2ccc(F)cc2F)cc1C(=O)O [Compound C5D, n-pentanoyldiflunisal] | 57.5 ± 1.7 % of control |
| CC(=O)Oc1ccc(-c2ccc(F)cc2F)cc1C(=O)O [Compound C2D, acetyldiflunisal] | 0 % of control |

same assay, conditions: preincubation 20 minutes; compound 600 µM, 37° C.; arachidonic acid 200 µM

| SMILES | Platelet Aggregation (% of control) |
| --- | --- |
| CCCC(=O)Oc1ccc(-c2ccc(F)cc2F)cc1C(=O)O [Compound C4D, n-butanoyldiflunisal] | 0 % of control |
| CCCCC(=O)Oc1ccc(-c2ccc(F)cc2F)cc1C(=O)O [Compound C5D, n-pentanoyldiflunisal] | 0 % of control |
| CC(=O)Oc1ccc(-c2ccc(F)cc2F)cc1C(=O)O [Compound C2D, acetyldiflunisal] | 0 % of control |

same assay, conditions: preincubation 25 minutes; compound 600 µM, 37° C.; arachidonic acid 200 µM

| SMILES | Platelet Aggregation (% of control) |
| --- | --- |
| CCCC(=O)Oc1ccc(-c2ccc(F)cc2F)cc1C(=O)O [Compound C4D, n-butanoyldiflunisal] | 0 % of control |
| CCCCC(=O)Oc1ccc(-c2ccc(F)cc2F)cc1C(=O)O [Compound C5D, n-pentanoyldiflunisal] | 0 % of control |
| CC(=O)Oc1ccc(-c2ccc(F)cc2F)cc1C(=O)O [Compound C2D, acetyldiflunisal] | 0 % of control |

same assay, conditions: preincubation 45 minutes; compound 600 µM, 37° C.; arachidonic acid 200 µM

| SMILES | Platelet Aggregation (% of control) |
| --- | --- |
| CCCC(=O)Oc1ccc(-c2ccc(F)cc2F)cc1C(=O)O [Compound C4D, n-butanoyldiflunisal] | 0 % of control |
| CCCCC(=O)Oc1ccc(-c2ccc(F)cc2F)cc1C(=O)O [Compound C5D, n-pentanoyldiflunisal] | 0 % of control |
| CC(=O)Oc1ccc(-c2ccc(F)cc2F)cc1C(=O)O [Compound C2D, acetyldiflunisal] | 0 % of control |

system: in-situ perfused rat liver; experiment: In-situ rat liver perfusions, hepatic availability (Example 2); assay type: in vitro ADME; details: 2% BSA in Krebs-Henseleit buffer as perfusate, 30 mL/min, bolus
Protocol: The hepatic availability (Fhepatic) for the O-acyl esters of the salicylic acid and diflunisal was determined using a once through in-situ perfused rat liver preparation (Mellick et al, Unpublished Results).
Protein-free Krebs-Henseleit buffer was perfused at 30 mL/min for aspiring analogues and 2% BSA in Krebs-Henseleit buffer for diflunisal esters (since the solubilities of these latter compounds in protein-free media were very low (Hung et al, supra), 2% BSA were used to increase their solubilities). Briefly, 50 μL aliquots of a saturated solution of the particular O-acyl salicylic acid or diflunisal in Krebs-Henseleit buffer (or with 2% BSA) was injected into the liver with perfusate outflow samples collected via a fraction collector over three minutes. Aliquots (100 μL) from the outflow samples were assayed by HPLC to determine the residual concentration of presented ester and the quantity of phenolic metabolite (salicylic acid or diflunisal) issuing from the perfused liver. The HPLC assay was a modification of the method used by Mellick & Roberts 1996 (Mellick et al, 1996, unpublished results).
The hepatic availability (F) was determined from the outflow concentration versus time profiles for the esters using equation 1, with the assistance of the Moments Calculator 2.2 program for Macintosh computer developed by Robert Purves.
where Q is the perfusate flow rate and D is the dose of aspirin analogues or diflunisal esters administered. The area under the concentration-time curve (AUC) was estimated by the trapezoidal rule integration with appropriate modification for tail (Mellick et al, supra).

| SMILES | Hepatic availability (F) |
| --- | --- |
| CCCC(=O)Oc1ccc(-c2ccc(F)cc2F)cc1C(=O)O [Compound C4D, n-butanoyldiflunisal] | 0.34 |
| CCCCC(=O)Oc1ccc(-c2ccc(F)cc2F)cc1C(=O)O [Compound C5D, n-pentanoyldiflunisal] | 0.38 |
| CC(=O)Oc1ccc(-c2ccc(F)cc2F)cc1C(=O)O [Compound C2D, acetyldiflunisal] | 0.21 |

system: OH. generated from Fenton's reaction; experiment: Luminol-dependent chemiluminescence induced by Fenton's reagent; assay type: biochemical; parameters: unit of the concentration uncertain; details: 0.5 (unit uncertain) compound; F: CL induced by Fenton's reagent; n=3; U = undetectable
Protocol: CL was measured with a luminometer (Model 1250; LKB Wallac, Finland) and recorded in millivolts (Cheung et al., 1984, supra).
Fenton's reagent (FeSO4 and H2O2) was used as a standard reaction mixture for the generation of OH. (Lai and Piette, 1979, Tetrahedron Lett. 775-778):
Fe^+++H2O2→Fe^++++OH.+OH (1)
The initial reaction mixture consisted of 20 μL of 3.8 mM FeSO4.7H2O, 20 μL of 5 mg/mL luminol (Sigma), and 2 mL of 1 mM phosphate buffer in a 3 mL polystyrene cuvette. Twenty microlitres of 320 mM H2O2 was added to initiate the Fenton's reaction.
A known concentration of the ethanolic (≲1%) aspirin analogue or diflunisal ester's stock solution was added to the 1 mM phosphate buffer to prepare solutions with a final concentration of 50 μM, 250 μM or 500 μM. Twenty microlitres of these test samples was added onto the cuvette which contained the initial reaction mixture. H2O2 was added to induce CL reaction. The luminol-dependent CL response was recorded in mV by a potentiometric recorder.
(§1) CL measurements were always done in triplicate and Student's t-test used to assess the statistical significance of the difference between measurements.

| SMILES | CL inhibition (%) |
| --- | --- |
| CCCC(=O)Oc1ccc(-c2ccc(F)cc2F)cc1C(=O)O [Compound C4D, n-butanoyldiflunisal] | 16.9 ± 4.9 |
| CCCCC(=O)Oc1ccc(-c2ccc(F)cc2F)cc1C(=O)O [Compound C5D, n-pentanoyldiflunisal] | 22.2 ± 7.1 |
| CC(=O)Oc1ccc(-c2ccc(F)cc2F)cc1C(=O)O [Compound C2D, acetyldiflunisal] | 21.3 ± 5.0 |

same assay, conditions: 2.5 (unit uncertain) compound; F: CL induced by Fenton's reagent; n=3

| SMILES | CL inhibition (%) |
| --- | --- |
| CCCC(=O)Oc1ccc(-c2ccc(F)cc2F)cc1C(=O)O [Compound C4D, n-butanoyldiflunisal] | 65.1 ± 2.1 |
| CCCCC(=O)Oc1ccc(-c2ccc(F)cc2F)cc1C(=O)O [Compound C5D, n-pentanoyldiflunisal] | 58.2 ± 2.5 |
| CC(=O)Oc1ccc(-c2ccc(F)cc2F)cc1C(=O)O [Compound C2D, acetyldiflunisal] | 49.8 ± 3.9 |

same assay, conditions: 5 (unit uncertain) compound; F: CL induced by Fenton's reagent; n=3

| SMILES | CL inhibition (%) |
| --- | --- |
| CCCC(=O)Oc1ccc(-c2ccc(F)cc2F)cc1C(=O)O [Compound C4D, n-butanoyldiflunisal] | 93.7 ± 0.5 |
| CCCCC(=O)Oc1ccc(-c2ccc(F)cc2F)cc1C(=O)O [Compound C5D, n-pentanoyldiflunisal] | 88.8 ± 0.9 |
| CC(=O)Oc1ccc(-c2ccc(F)cc2F)cc1C(=O)O [Compound C2D, acetyldiflunisal] | 91.2 ± 0.6 |

system: superoxide generated from xanthine oxidase plus xanthine reaction; experiment: Xanthine oxidase plus xanthine-induced chemiluminescence; assay type: biochemical; parameters: dose or concentration left out as unconfirmed; details: X: CL induced by xanthine oxidase plus xanthine
Protocol: To clarify the role of aspirin analogues and diflunisal esters in free radicals scavenging, the Fenton's reagent was replaced by an artificial superoxide generating system in the CL inhibition studies. This cell-free system consisted of 100 μg/mL of xanthine oxidase (Sigma) plus 0.5 μM xanthine (Sigma) (Rosen and Klebanoff, 1976, J Clin Invest 58 50-60; Cheson et al., 1976, J Clin Invest 58 789-796).
as §1

| SMILES | CL inhibition (%) |
| --- | --- |
| CCCC(=O)Oc1ccc(-c2ccc(F)cc2F)cc1C(=O)O [Compound C4D, n-butanoyldiflunisal] | 0.6 ± 0.1 |
| CCCCC(=O)Oc1ccc(-c2ccc(F)cc2F)cc1C(=O)O [Compound C5D, n-pentanoyldiflunisal] | 0.8 ± 0.0 |
| CC(=O)Oc1ccc(-c2ccc(F)cc2F)cc1C(=O)O [Compound C2D, acetyldiflunisal] | 0.5 ± 0.0 |
